Experimental data from article PMC10388363, “Novel 1,4-Dihydropyridines as Specific Binders and Activators of SIRT3 Impair Cell Viability and Clonogenicity and Downregulate Hypoxia-Induced Targets in Cancer Cells” (Journal of Medicinal Chemistry, 2023).

Experiments:
[1] = target: T1, human SIRT5 (Homo sapiens, UniProt Q9NXA8); experiment: PncA/GDH-coupled deacylation assay, SIRT5 activation (CPS1-succK537 substrate); type: biochemical; conditions: for effect on SIRT5: 10 μM compound; for SIRT5 activation: 100 μM compound
T1 construct: pET151D/Topo (Sirt3-114-380 and Sirt5-34-302); His tag (N, cleaved yes); made in house; host or cells: Escherichia coli
T1 sequence (Q9NXA8 34-302): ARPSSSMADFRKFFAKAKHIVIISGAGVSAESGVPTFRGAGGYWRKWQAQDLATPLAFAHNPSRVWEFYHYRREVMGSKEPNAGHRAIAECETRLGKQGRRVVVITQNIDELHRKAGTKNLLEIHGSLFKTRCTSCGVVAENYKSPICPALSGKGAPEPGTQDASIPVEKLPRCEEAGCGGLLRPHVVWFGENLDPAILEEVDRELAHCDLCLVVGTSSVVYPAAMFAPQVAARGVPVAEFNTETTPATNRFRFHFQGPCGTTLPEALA
Experimental: (§1) To avoid artifacts and other non-specific effects, instead of the “Fluor-de-Lys” (FdL) substrate, we used a PncA/GDH-coupled deacylation assay by measuring the NADPH oxidation to NADP^+ that relies on isoform-specific non-modified physiological acetyl or succinyl substrates [p53-acK381 for SIRT1, α-tubulin-[…] for SIRT2, acetyl-CoA synthetase 2 (ACS2)-acK642 for SIRT3, and CPS1-succK537 for SIRT5].[59] The assays were carried out using the 1,4-DHP derivatives 2a–n and 3a–d against SIRT3, including the prototype compounds 2 and 3 as positive controls.
(§2) N-terminally his-tagged human sirtuins were expressed in Escherichia coli using constructs in pET15b (Sirt1) or pET151D/Topo (Sirt3-114-380 and Sirt5-34-302).[4],[59],[61] Sirt2-43-356 was expressed from a modified pET19b containing a TEV protease cleavage site and an N-terminal SUMO-tag.[59],[79] Proteins were expressed and purified as described elsewhere.[59],[61],[79]−[81] In brief, proteins were expressed in E. coli, crude extracts were cleared by centrifugation, and the proteins were affinity purified using NiNTA beads.
(§3) Sirtuin deacylation activities were analyzed by using a coupled enzymatic assay as described in.[59],[82] For initial modulation screenings, substrate peptide specificity analysis, and compound titrations, 1.5 μM sirtuin was incubated with 50 μM substrate peptide and 100 μM NAD^+ in absence or presence of 10 μM, 100 μM or the indicated concentration of 1,4-DHP at a final DMSO concentration of 5%. For kinetic experiments, 1.5 μM sirtuin was incubated with saturating concentrations of either substrate peptide (0.4 mM) or NAD^+ (2 mM), with the second substrate’s concentration being varied in absence or presence of 200 μM 1,4-DHP at a final concentration of 5% DMSO. Potential 1,4-DHP effects on the coupled enzymes GDH and nicotinamidase were tested in control assays containing 50 μM NAM instead of the substrate peptide.

[2] = target: T2, human SIRT2 (Homo sapiens, UniProt Q8IXJ6); experiment: PncA/GDH-coupled deacylation assay, SIRT2 activation (α-tubulin-acK25 substrate); type: biochemical; conditions: for effect on SIRT2: 10 μM compound; for SIRT2 activation: 100 μM compound
T2 construct: Sirt2-43-356 was expressed from a modified pET19b; SUMO-tag (with TEV protease cleavage site) (N, cleaved yes); His tag (N, cleaved yes); made in house; host or cells: Escherichia coli
T2 sequence (Q8IXJ6 43-356): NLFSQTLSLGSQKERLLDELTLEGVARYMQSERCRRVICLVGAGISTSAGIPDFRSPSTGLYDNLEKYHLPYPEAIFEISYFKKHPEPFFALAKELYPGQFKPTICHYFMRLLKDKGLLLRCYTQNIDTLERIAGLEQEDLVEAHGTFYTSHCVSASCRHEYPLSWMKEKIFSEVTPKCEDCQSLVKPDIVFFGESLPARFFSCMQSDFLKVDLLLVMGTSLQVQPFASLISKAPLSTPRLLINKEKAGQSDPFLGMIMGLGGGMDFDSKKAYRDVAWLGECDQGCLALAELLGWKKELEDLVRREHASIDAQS
Experimental: as §1, §2, §3

[3] = tested on: GDH activity in MDA-MB-231 cells; experiment: GDH activity assay in lysates of treated MDA-MB-231 cells; type: cell-based, human; conditions: 50 μM, 4 h
Experimental: Selected compounds 3a–d were tested in triple-negative breast cancer MDA-MB-231 cells to evaluate their effects on SIRT3 physiological substrates. First, the effect on the activity of GDH (an established SIRT3 substrate activated through deacetylation[60]−[62]) was investigated by a coupled enzyme assay. […] These effects of SIRT3 activators clearly phenocopied those observed in the SIRT3-overexpressing MDA-MB-231 cells (SIRT3^+) (Figure 6).
GDH activity in cells treated or not with the SIRT3 activators 3a–d and the reference compounds 2 and 3 was measured using a GDH activity assay kit (MAK099, Merck) following the manufacturer’s instructions. Briefly, 10^6 cells were lysed in 40 μL of GDH assay buffer and kept for 10 min in ice. Afterward, lysates were centrifuged to collect supernatants. Ten microliters of supernatant were added to 40 μL of GDH buffer and 100 μL of a mix containing GDH assay buffer, developer, and glutamate. The whole mix was transferred into a 96-well plate and incubated at 37 °C for 3 min. Finally, absorbance was read at 450 nm using a GloMax multi detection system (Promega, Milan, Italy). The absorbance of the assay buffer was subtracted from each experimental sample.

[4] = target: T3, human SIRT1 (Homo sapiens, UniProt Q96EB6); experiment: PncA/GDH-coupled deacylation assay, SIRT1 activation (p53-acK381 substrate); type: biochemical; conditions: for effect on SIRT1: 10 μM compound; for SIRT1 activation: 100 μM compound
T3 construct: using constructs in pET15b (Sirt1); His tag (N, cleaved yes); made in house; host or cells: Escherichia coli
T3 sequence (Q96EB6 1-747): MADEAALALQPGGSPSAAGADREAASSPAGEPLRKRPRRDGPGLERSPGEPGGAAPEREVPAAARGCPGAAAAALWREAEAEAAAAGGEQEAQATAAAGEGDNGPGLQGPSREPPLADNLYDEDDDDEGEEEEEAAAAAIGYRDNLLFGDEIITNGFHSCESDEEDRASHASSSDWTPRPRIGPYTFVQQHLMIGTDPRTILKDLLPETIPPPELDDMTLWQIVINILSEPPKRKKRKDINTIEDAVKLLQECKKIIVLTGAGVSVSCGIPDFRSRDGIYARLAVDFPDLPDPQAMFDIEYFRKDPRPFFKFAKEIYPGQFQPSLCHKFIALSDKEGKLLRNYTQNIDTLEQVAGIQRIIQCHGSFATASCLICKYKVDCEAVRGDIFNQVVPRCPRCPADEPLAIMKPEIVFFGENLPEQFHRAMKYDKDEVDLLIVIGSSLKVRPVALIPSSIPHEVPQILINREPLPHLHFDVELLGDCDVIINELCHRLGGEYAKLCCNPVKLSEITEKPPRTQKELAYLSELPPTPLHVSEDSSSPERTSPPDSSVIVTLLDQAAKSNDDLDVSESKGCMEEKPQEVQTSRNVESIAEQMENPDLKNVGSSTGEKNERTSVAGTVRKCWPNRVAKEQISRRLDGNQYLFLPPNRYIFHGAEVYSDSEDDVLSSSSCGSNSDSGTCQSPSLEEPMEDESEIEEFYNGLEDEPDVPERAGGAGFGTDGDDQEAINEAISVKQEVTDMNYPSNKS
Experimental: as §1, §2, §3

| SMILES | effect on SIRT5 [1] | SIRT5 activation [1] [%] | effect on SIRT2 [2] | SIRT2 activation [2] [%] | effect on GDH activity in cell lysates [3] | effect on SIRT1 [4] | SIRT1 activation [4] [%] | GDH activation [3] |
| --- | --- | --- | --- | --- | --- | --- | --- | --- |
| CCOC(=O)C1=CN(C(=O)c2ccc(OC)c(OC)c2)C=C(C(=O)OCC)C1c1ccccc1 [Compound 3c, Diethyl 1-(3,4-dimethoxybenzoyl)-4-phenyl-1,4-dihydropyridine-3,5-dicarboxylate] | negligible effects | 160 | negligible effects | 136 | increase in GDH activity | negligible effects | 156 | – |
| CCOC(=O)C1=CN(C(=O)c2cc(OC)cc(OC)c2)C=C(C(=O)OCC)C1c1ccccc1 [Compound 3d, Diethyl 1-(3,5-dimethoxybenzoyl)-4-phenyl-1,4-dihydropyridine-3,5-dicarboxylate] | negligible effects | – | negligible effects | – | increase in GDH activity | negligible effects | 130 | around 175% |
| CCOC(=O)C1=CN(C(=O)c2cccc(OC)c2)C=C(C(=O)OCC)C1c1ccccc1 [Compound 3a, Diethyl 1-(3-methoxybenzoyl)-4-phenyl-1,4-dihydropyridine-3,5-dicarboxylate] | negligible effects | 144 | negligible effects | 130 | increase in GDH activity | negligible effects | 164 | – |
